The term Ki denotes the equilibrium dissociation constant of an inhibitor or competing ligand from its target.

7 molecules from patent publication US6686369B1, “α-hydrdroxylic acid derivatives, their production and use” (Abbott GmbH & Co., KG, priority 1996, dated 2004) can be followed below.

Structures are written as SMILES.

Assay [1] has as its target T1, cloned human ETA receptor (Homo sapiens, UniProt P25101).
T1 construct: expressed in transfected cells; host or cells: CHO cells
T1 sequence (P25101 21-427): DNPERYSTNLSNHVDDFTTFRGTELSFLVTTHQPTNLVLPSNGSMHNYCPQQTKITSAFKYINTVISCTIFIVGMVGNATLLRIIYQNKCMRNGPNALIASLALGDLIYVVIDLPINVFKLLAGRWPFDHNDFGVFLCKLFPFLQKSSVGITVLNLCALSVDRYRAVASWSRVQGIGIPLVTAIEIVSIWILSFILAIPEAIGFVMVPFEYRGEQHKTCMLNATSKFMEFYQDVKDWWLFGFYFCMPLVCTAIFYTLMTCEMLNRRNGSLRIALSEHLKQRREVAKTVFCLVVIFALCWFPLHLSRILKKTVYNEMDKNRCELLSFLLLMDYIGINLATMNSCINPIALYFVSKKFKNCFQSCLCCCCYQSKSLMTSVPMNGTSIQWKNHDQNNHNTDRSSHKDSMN
Briefly: ETA receptor binding assay ([125I]-ET1, membranes of ETA receptor-expressing CHO cells). The following applies: CHO cell membranes, 25 pM [125I]-ET1, 25° C. As for the experimental part:
(§1) For binding studies, cloned human ETA receptor-expressing CHO cells and guinea-pig cerebellar membranes with >60% ETB relative to ETA receptors were employed.
The ETA receptor-expressing CHO cells were grown in F12 medium with 10% fetal calf serum, 1% glutamine, 100 U/ml penicillin and 0.2% streptomycin (Gibco BRL, Gaithersburg, Md., USA). After 48 h, the cells were washed with PBS and incubated with 0.05% trypsin-containing PBS for 5 min. After neutralization with F12 medium, the cells were collected by centrifugation at 300×g. For cell lysis, the pellet was briefly washed with lysis buffer (5 mM Tris-HCl, pH 7.4 with 10% glycerol) and then incubated at a concentration of 10^7 cells/ml of lysis buffer at 4° C. for 30 min. The membranes were centrifuged at 20,000×g for 10 min, and the pellet was stored in liquid nitrogen.
(§2) For the ETA and ETB receptor binding assays, the membranes were suspended in incubation buffer (50 mM Tris-HCl, pH 7.4 with 5 mM MnCl2, 40 μg/ml bacitracin and 0.2% BSA) at a concentration of 50 μg of protein per assay mixture and incubated at 25° C. with 25 pM [125I [sic]]-ET1 (ETA receptor assay) or 25 pM [125I [sic]]-RZ3 (ETB receptor assay) in the presence and absence of test substance. The nonspecific binding was determined with 10^−7 M ET1. Filtration through GF/B glass fiber filters (Whatman, England) in a Skatron cell collector (Skatron, Lier, Norway) after 30 min separated the free and the bound radioligand, and the filters were washed with ice-cold Tris-HCl buffer, pH 7.4 with 0.2% BSA. The radioactivity collected on the filters was quantified using a Packard 2200 CA liquid scintillation counter.

Another assay concerns the target T2, ETB receptor (Cavia porcellus, UniProt H0VTF3).
T2 construct: Guinea-pig cerebella were homogenized in a Potter-Elvejhem homogenizer; from tissue; host or cells: guinea-pig cerebellum membranes
T2 sequence (H0VTF3 27-415): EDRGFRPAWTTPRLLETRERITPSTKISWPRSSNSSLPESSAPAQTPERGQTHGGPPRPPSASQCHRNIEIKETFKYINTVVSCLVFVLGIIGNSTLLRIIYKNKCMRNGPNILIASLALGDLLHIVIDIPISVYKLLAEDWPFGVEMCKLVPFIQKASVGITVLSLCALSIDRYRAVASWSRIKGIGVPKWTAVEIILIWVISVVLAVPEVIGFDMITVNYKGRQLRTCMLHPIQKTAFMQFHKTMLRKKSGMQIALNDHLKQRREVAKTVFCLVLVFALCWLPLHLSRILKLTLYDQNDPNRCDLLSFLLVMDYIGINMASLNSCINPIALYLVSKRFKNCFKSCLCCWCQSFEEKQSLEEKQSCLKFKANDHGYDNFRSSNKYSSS
Briefly: ETB receptor binding assay ([125I]-RZ3, guinea-pig cerebellar membranes). The following applies: 25 pM [125I]-RZ3, 25° C. As for the experimental part: as §1
Guinea-pig cerebella were homogenized in a Potter-Elvejhem homogenizer and obtained by differential centrifugation at 1000×g for 10 min and repeated centrifugation of the supernatant at 20,000×g for 10 min.
as §2

In the case of `Cc1cc(C)nc(OC(C(=O)O)C(C)(c2ccccc2)c2ccccc2)n1` (racemic) [Compound I-3, 2-(4,6-Dimethyl-2-pyrimidinyloxy)-3,3-diphenylbutyric Acid], the Ki was 4 nM in assay [1] and 325 nM on ETB receptor.

As to `COc1cc(OC)nc(OC(C(=O)O)C(C)(c2ccccc2)c2ccccc2)n1` (centres unmarked) [Compound I-1], the Ki in assay [1] was found to be 25 nM; at ETB receptor, 950 nM.

For `COc1cc(C)nc(OC(C(=O)O)C(C)(c2ccccc2)c2ccccc2)n1` (centres unmarked) [Compound I-2], the inhibition constant Ki in assay [1] turned out to be 3.5 nM; on ETB receptor, 290 nM.

As to `CCC(c1ccccc1)(c1ccccc1)C(Oc1nc(OC)cc(OC)n1)C(=O)O` (centres unmarked) [Compound I-11], the Ki in assay [1] was found to be 20 nM; on ETB receptor, 1400 nM.

Take `CCC(c1ccccc1)(c1ccccc1)C(Oc1nc(C)cc(OC)n1)C(=O)O` (centres unmarked) [Compound I-12]: the inhibition constant (Ki) stood at 4 nM in assay [1] and 250 nM on ETB receptor.

On to `CCC(c1ccccc1)(c1ccccc1)C(Oc1nc(C)cc(C)n1)C(=O)O` (centres unmarked) [Compound I-15], for which the Ki in assay [1] was found to be 4 nM; at ETB receptor it was 540 nM.

Turning to `COc1cc(C)nc(OC(C(=O)O)C(CO)(c2ccccc2)c2ccccc2)n1` (centres unmarked) [Compound I-20], the Ki stood at 5 nM in assay [1] and 445 nM at ETB receptor.
